{
  "source": "patent US12357644B2",
  "about": "“Acetyl salicylic acid composition for intravenous administration, its storage, production and use” (HYLORIS DEVELOPMENTS SA, priority 2022, dated 2025)",
  "key": {"[1]": {"experiment": "Assay and purity by HPLC on non-irradiated and gamma-irradiated ASA powder", "assay_type": "physicochemical", "conditions": "after gamma irradiation", "experimental": "The packaged ASA was end-sterilized by 25 or 55 kGy using a Cobalt60 irradiation source. Inside the installation, samples are placed on a turn table which is turned a quarter to expose each sample from each side at equal amounts of irradiation. For each 1 kGy, the sample is irradiated for 10 min.\nAfter gamma-irradiation, the samples were again analysed for sterility according to Ph. Eur. 2.6.1., which is harmonized with USP 71. Potential degradation was monitored by determining assay and purity by HPLC.\nSalicylic acid levels were less than 0.05%."}, "[2]": {"experiment": "Saturated solubility of ASA after 1 hour shaking in a medium selection", "assay_type": "physicochemical", "conditions": "for solubility thermodynamic at 1 h: thermodynamic from solid, read-out: Individual concentration at saturation (Cs), Aspirin (A)", "experimental": "Prior to spray drying experiments, the solution pH of different solvents and the saturation solubility of ASA in different solvents was screened. The acidified mediums were prepared as follows:\n8.5 ml of hydrochloric acid (about 35% v/v) was transferred into 900 ml of water and diluted to 1000 ml with water. 10.0 ml of this solution was diluted to 1000 ml with water. The pH of the solution was noted.\n8.5 ml of hydrochloric acid (about 35% v/v) was transferred into 900 mL 96% ethanol and diluted to 1000 ml with water. 10.0 ml of this solution was diluted to 1000 ml with 96% ethanol. The pH of the solution was noted.\n8.5 ml of hydrochloric acid (about 35% v/v) was transferred into 900 mL Tertiary butyl alcohol and diluted to 1000 ml with Tertiary butyl alcohol. 10.0 ml of this solution was diluted to 1000 ml with 96% Tertiary butyl alcohol. The pH of the solution was noted.\n8.5 ml of hydrochloric acid (about 35% v/v) was transferred into 900 ml water and diluted to 1000 ml with water. 10.0 ml of this solution was diluted to 1000 ml with water. […] The pH of the solution was noted.\nASA has more solubility in non-aqueous media compared to aqueous media and ASA dissolves better in ethanol compared to tertiary butyl alcohol however it also has higher salicylic acid content (Tables 6 and 7). Once it is acidified the salicylic acid levels are lowered."}, "[3]": {"conditions": "cited from earlier work"}, "[4]": {"experiment": "Terminal sterilization by autoclaving, degradation of ASA", "assay_type": "physicochemical", "conditions": "autoclaving at 121° C. for 20 mins", "experimental": "In yet another alternative, the first component comprises an autoclaved terminally sterilized acetyl salicylic acid particulate powder. The terminally sterilized material may be obtained by autoclaving at 121° C. for 20 mins.\nAlternatively, the first component was prepared by filling acetyl salicylic acid into vials and terminally sterilizing the ASA filled vials for 20 minutes at 121° C. A skilled person would not expect that a two-component system can be based on autoclaved ASA due to an expected incompatibility with heat."}, "[5]": {"experiment": "Reconstitution testing of ASA in buffer diluents", "assay_type": "physicochemical", "conditions": "gamma irradiated ASA", "experimental": "The material produced in the radiation and spray drying experiments was tested in reconstitution studies and compared to non-sterile, crystalline acetyl salicylic acid.\nThe buffer systems were tested for reconstitution of 325.0 mg gamma irradiated acetyl salicylic acid powder in 5 or 10 ml reconstitution fluid. Different buffer strengths were screened. […]"}, "[6]": {"conditions": "buffer —, purified water Ad 10 g, 10 mL"}},
  "note": "Values joined by “and” are separate entries in the source; they are usually repeats but may differ in a detail not shown here. Equal entries are not always repeated. Where two headings read alike, the source gives them in different places.",
  "data": [
    {"smiles": "CC(=O)Oc1ccccc1C(=O)O", "note": "[ASA, Acetyl salicylic acid]", "values": [
      {"measurement": "Salicylic acid levels", "setting": "[1]", "value": "less than 0.05%"},
      {"measurement": "impurities identified", "setting": "[1]", "value": "no impurities were identified"},
      {"measurement": "solubility thermodynamic at 1 h", "setting": "[2]; 60 g/L mannitol solution, saline or isotonic, 60 g/L mannitol, without pH adjustment", "value": 3090, "unit": "µg/mL"},
      {"measurement": "Individual concentration at saturation (Cs), Aspirin (A)", "setting": "[2]; 60 g/L mannitol, without pH adjustment", "value": "2.868 mg/mL and 2.484 mg/mL"},
      {"measurement": "Cs (mean)", "setting": "[2]; Acidified 60 g/L mannitol", "value": 1.787, "unit": "mg/mL"},
      {"measurement": "Cs (mean)", "setting": "[2]; Acidified ethanol", "value": 142.678, "unit": "mg/mL"},
      {"measurement": "Individual concentration at saturation (Cs), Aspirin (A)", "setting": "[2]; Acidified ethanol", "value": "143.526 mg/mL and 142.299 mg/mL and 141.593 mg/mL"},
      {"measurement": "Individual concentration at saturation (Cs), Aspirin (A)", "setting": "[2]; Acidified tert-butyl alcohol", "value": "48.73 mg/mL and 48.156 mg/mL and 48.453 mg/mL"},
      {"measurement": "Individual concentration at saturation (Cs), Aspirin (A)", "setting": "[2]; Acidified water", "value": "1.924 mg/mL and 1.912 mg/mL"},
      {"measurement": "Individual concentration at saturation (Cs), Aspirin (A)", "setting": "[2]; Ethanol, without pH adjustment", "value": "158.430 mg/mL and 163.027 mg/mL and 160.432 mg/mL"},
      {"measurement": "Individual concentration at saturation (Cs), Aspirin (A)", "setting": "[2]; Tert-butyl alcohol, without pH adjustment", "value": "22.768 mg/mL and 23.150 mg/mL and 22.889 mg/mL"},
      {"measurement": "Individual concentration at saturation (Cs), Aspirin (A)", "setting": "[2]; Water, without pH adjustment", "value": "3.429 mg/mL and 3.423 mg/mL"},
      {"measurement": "solubility thermodynamic at 1 h", "setting": "[2]; acidified 60 g/L mannitol solution, saline or isotonic, Acidified 60 g/L mannitol", "value": 1780, "unit": "µg/mL"},
      {"measurement": "solubility thermodynamic at 1 h", "setting": "[2]; acidified water, aqueous buffer, Acidified water", "value": 1890, "unit": "µg/mL"},
      {"measurement": "solubility thermodynamic at 1 h", "setting": "[2]; water, Water, without pH adjustment", "value": 3090, "unit": "µg/mL"},
      {"measurement": "solubility", "setting": "[3]; above pH 5.5", "value": "above 100 mg/ml"},
      {"measurement": "solubility in water", "setting": "[3]; water", "value": "about 0.3%"},
      {"measurement": "degradation of acetyl salicylic acid", "setting": "[4]", "value": "no degradation"},
      {"measurement": "pH after reconstitution", "setting": "[5]; Carbonate - NaOH 0.15M", "value": 6.254},
      {"measurement": "325 mg ASA dissolves?", "setting": "[5]; Carbonate - NaOH 0.2M, 10 mL", "value": "YES -"},
      {"measurement": "pH after reconstitution", "setting": "[5]; Carbonate - NaOH 0.2M, 10 mL", "value": 9.160},
      {"measurement": "325 mg ASA dissolves?", "setting": "[5]; Carbonate - NaOH 0.25, 10 mL", "value": "YES -"},
      {"measurement": "pH after reconstitution", "setting": "[5]; Carbonate - NaOH 0.25, 10 mL", "value": 9.646},
      {"measurement": "Time needed to dissolve (±)", "setting": "[5]; Carbonate - NaOH 0.25, 10 mL, (3 min) + <1 min", "value": "<1", "unit": "min"},
      {"measurement": "325 mg ASA dissolves?", "setting": "[5]; Carbonate - NaOH 0.5M, 5 mL", "value": "YES -"},
      {"measurement": "Time needed to dissolve (±)", "setting": "[5]; Carbonate - NaOH 0.5M, 5 mL", "value": 3, "unit": "min"},
      {"measurement": "pH after reconstitution", "setting": "[5]; Carbonate - NaOH 0.5M, 5 mL", "value": 7.534},
      {"measurement": "325 mg ASA dissolves?", "setting": "[5]; Carbonate - NaOH 1M, 5 mL", "value": "YES -"},
      {"measurement": "Time needed to dissolve (±)", "setting": "[5]; Carbonate - NaOH 1M, 5 mL", "value": "<3", "unit": "min"},
      {"measurement": "pH after reconstitution", "setting": "[5]; Carbonate - NaOH 1M, 5 mL", "value": 9.308},
      {"measurement": "325 mg ASA dissolves? If yes, in 5 or 10 mL?", "setting": "[5]; Carbonate-NaOH 0.025M, Ad 10 g", "value": "YES - 5 mL"},
      {"measurement": "Time needed to dissolve (±)", "setting": "[5]; Carbonate-NaOH 0.025M, 5 mL", "value": 0.5, "unit": "min"},
      {"measurement": "pH after reconstitution", "setting": "[5]; Carbonate-NaOH 0.025M, 5 mL", "value": 9.233},
      {"measurement": "pH after reconstitution", "setting": "[5]; NaOH 0.1M", "value": 4.199},
      {"measurement": "325 mg ASA dissolves? If yes, in 5 or 10 mL?", "setting": "[5]; NaOH 0.25M", "value": "YES - 10 mL"},
      {"measurement": "pH after reconstitution", "setting": "[5]; NaOH 0.25M, 10 mL", "value": 7.099},
      {"measurement": "Time needed to dissolve (±)", "setting": "[5]; NaOH 0.25M, 10 mL, (3 min) + <1 min", "value": "<1", "unit": "min"},
      {"measurement": "325 mg ASA dissolves? If yes, in 5 or 10 mL?", "setting": "[5]; NaOH 0.3M", "value": "YES - 10 mL"},
      {"measurement": "Time needed to dissolve (±)", "setting": "[5]; NaOH 0.3M, 10 mL, printed as (3 min) + 1 min", "value": 1, "unit": "min"},
      {"measurement": "325 mg ASA dissolves? If yes, in 5 or 10 mL?", "setting": "[5]; NaOH 0.4M", "value": "YES - 10 mL"},
      {"measurement": "pH after reconstitution", "setting": "[5]; NaOH 0.4M, 10 mL", "value": 12.103},
      {"measurement": "Time needed to dissolve (±)", "setting": "[5]; NaOH 0.4M, 10 mL, (3 min) + <1 min", "value": "<1", "unit": "min"},
      {"measurement": "325 mg ASA dissolves? If yes, in 5 or 10 mL?", "setting": "[5]; NaOH 0.5M", "value": "YES - 5 mL"},
      {"measurement": "Time needed to dissolve (±)", "setting": "[5]; NaOH 0.5M, 5 mL", "value": "<1", "unit": "min"},
      {"measurement": "pH after reconstitution", "setting": "[5]; NaOH 0.5M, 5 mL", "value": 7.229},
      {"measurement": "325 mg ASA dissolves? If yes, in 5 or 10 mL?", "setting": "[5]; NaOH 1M", "value": "YES - 5 mL"},
      {"measurement": "Time needed to dissolve (±)", "setting": "[5]; NaOH 1M, 5 mL", "value": "<0.25", "unit": "min"},
      {"measurement": "pH after reconstitution", "setting": "[5]; NaOH 1M, 5 mL", "value": 12.814},
      {"measurement": "325 mg ASA dissolves?", "setting": "[5]; TBST 1M, pH of medium 7.574, 10 mL", "value": "YES -"},
      {"measurement": "Time needed to dissolve (±)", "setting": "[5]; TBST 1M, 10 mL", "value": 15, "unit": "min"},
      {"measurement": "pH after reconstitution", "setting": "[5]; TBST 1M, 10 mL", "value": 7.100},
      {"measurement": "Time needed to dissolve (±)", "setting": "[5]; Tris 0.025M, Ad 10 g, volume as in the dissolves column of the same line", "value": "<1 min and 2 min"},
      {"measurement": "pH after reconstitution", "setting": "[5]; Tris 0.1M", "value": 4.195},
      {"measurement": "325 mg ASA dissolves?", "setting": "[5]; Tris 0.25M, pH of medium 10.701, 10 mL", "value": "YES -"},
      {"measurement": "pH after reconstitution", "setting": "[5]; Tris 0.25M, 10 mL", "value": 7.616},
      {"measurement": "325 mg ASA dissolves?", "setting": "[5]; Tris 0.5M, pH of medium 10.814, 5 mL", "value": "YES -"},
      {"measurement": "Time needed to dissolve (±)", "setting": "[5]; Tris 0.5M, 5 mL", "value": 3, "unit": "min"},
      {"measurement": "pH after reconstitution", "setting": "[5]; Tris 0.5M, 5 mL", "value": 7.592},
      {"measurement": "325 mg ASA dissolves?", "setting": "[5]; Tris 1M, pH of medium 11.047, 5 mL", "value": "YES -"},
      {"measurement": "Time needed to dissolve (±)", "setting": "[5]; Tris 1M, 5 mL", "value": 3, "unit": "min"},
      {"measurement": "pH after reconstitution", "setting": "[5]; Tris 1M, 5 mL", "value": 8.550},
      {"measurement": "325 mg ASA dissolves? If yes, in 5 or 10 mL?", "setting": "[5]; buffer — , strength —, purified water Ad 10 g", "value": "Yes - 10 mL"},
      {"measurement": "Time needed to dissolve (±)", "setting": "[5]; [6]", "value": 30, "unit": "min"},
      {"measurement": "pH after reconstitution", "setting": "[5]; [6]", "value": 8.125}
    ]}
  ]
}
